In general, MIC refers to the lowest concentration that inhibits growth of the organism.

Values after ≈ are worked out from the molar mass of the structure shown. Like-named read-outs stand apart in the source and are kept apart here.

The values below come from patent US11464749B2, “Bismuth-thiol compositions and methods of use” (Microbion Corporation, priority 2018, dated 2022).

One test has as its system Candida auris. The experiment in a line: Broth microdilution antifungal susceptibility (Example 13). The class given is cell-based. Background: Dilution methods test growth across graded concentrations, often in twofold steps.
Another test deals with Candida krusei. The test is described as above. The format is cell-based.
The next test concerns A. flavus. Described as above. The class given is cell-based. The conditions noted are these: for MIC0: comparators, read time not given.
A further test concerns A. niger. Described as above. The conditions noted are these: A. niger ATCC 29508. The format is cell-based.
The next test concerns Candida glabrata. The test is described as above. The format is cell-based.
The subject of another test is A. terreus. Described as above. The class given is cell-based. The settings on record: A. terreus MMX 8229.
Another test concerns A. fumigatus. Described as above. The format is cell-based. The settings on record: for MIC0: comparators, read time not given.
For another test, the system named is Candida albicans. The description is as above. The class given is cell-based. The settings on record: 24 hr.
A further test concerns Burkholderia spp. Nature of the test: organism not typed. The format is cell-based.
For test [1], the system named is B. cepacia. The experiment in a line: FIC checkerboard assay. The class given is cell-based.
In a further test the test system is P. aeruginosa. The experiment in a line: FIC checkerboard assay. The class given is cell-based. The settings on record: for MICB / FICB: by checkerboard; for MIC: Pseudomonas aeruginosa, Aztreonam alone (checkerboard with BisEDT), read-out: Drug B MIC; for FICB: Colistin in combination with BisEDT.
Test [2] relates to B. cepacia. The experiment in a line: Broth microdilution MIC (Example 10). The conditions noted are these: initial MIC testing.
Test [3] deals with B. cenocepacia. Nature of the test: FIC checkerboard assay. The settings on record: during FIC testing; B. cenocepacia isolate 0548 (CIP-R). The format is cell-based.
Test [4] relates to B. cenocepacia. The experiment in a line: Broth microdilution MIC (Example 10). The settings on record: initial MIC testing; B. cenocepacia isolate 0548 (CIP-R).
[5] abbreviates: comparators, read time not given.

Take `C[C@@H](c1ncncc1F)[C@](O)(Cn1cncn1)c1ccc(F)cc1F` [VORI]: the “MIC2 (50% inhibition)” value in the test on Candida auris (isolate MMX 9862 (Susceptible)) is 0.03 µg/mL; in the test on Candida auris (isolate MMX 9863 (FLU-R, VORI-R)), >8 µg/mL; with Candida auris (isolate MMX 9864 (FLU-R, VORI-R)) it was 2 µg/mL; in the test with Candida auris (isolate MMX 9865 (FLU-R, VORI-R)), 8 µg/mL; against Candida auris (isolate MMX 9866 (FLU-R, VORI-R)), 8 µg/mL; in the test on Candida auris (isolate MMX 9867 (FLU-R, VORI-R)) it was 8 µg/mL. Moreover, the “MIC2 (50% inhibition)” value was >8 µg/mL against Candida auris (isolate MMX 9868 (FLU-R, VORI-R)); 2 µg/mL against Candida auris (isolate MMX 9869 (FLU-R, VORI-R)); 4 µg/mL with Candida auris (isolate MMX 9870 (FLU-R, VORI-R)); 1 µg/mL against Candida auris (isolate MMX 9871 (Susceptible)); 0.12 µg/mL with Candida krusei (isolate ATCC 6258 (MICA-I)); 0.06 µg/mL with Candida krusei (isolate ATCC 14243 (Susceptible)). Besides, the “MIC2 (50% inhibition)” value against Candida krusei (isolate ATCC 96685 (Susceptible)) stood at 0.5 µg/mL; with Candida krusei (isolate MMX 7125 (Susceptible)), 0.25 µg/mL; in the test with Candida krusei (isolate MMX 7128 (Susceptible)) it was 0.12 µg/mL; with Candida krusei (isolate MMX 7141 (Susceptible)), 0.12 µg/mL; in the test on Candida krusei (isolate MMX 7153 (MICA-R)), 0.25 µg/mL; with Candida krusei (isolate MMX 7155 (Susceptible)), 0.25 µg/mL. Further, the “MIC2 (50% inhibition)” value against Candida krusei (isolate MMX 7563 (Susceptible)) stood at 0.25 µg/mL; with Candida krusei (isolate MMX 9878 (MICA-I, VORI-I)) it was 1 µg/mL; against Candida glabrata (isolate ATCC 90030 (Susceptible)), 0.12 µg/mL; in the test on Candida glabrata (isolate ATCC MYA-2950 (Susceptible)), 0.12 µg/mL; in the test with Candida glabrata (isolate MMX 7087 (Susceptible)), 0.03 µg/mL; with Candida glabrata (isolate MMX 7093 (FLU-R)), 2 µg/mL. In addition, the “MIC2 (50% inhibition)” value turned out to be 2 µg/mL in the test with Candida glabrata (isolate MMX 7101 (FLU-R)); 0.12 µg/mL with Candida glabrata (isolate MMX 7103 (CASP-R, MICA-R)); 0.06 µg/mL in the test on Candida glabrata (isolate MMX 7111 (Susceptible)); 1 µg/mL in the test with Candida glabrata (isolate MMX 7285 (CASP-R, MICA-R)); 4 µg/mL against Candida glabrata (isolate MMX 7307 (CASP-R, MICA-R, FLU-R)); 0.06 µg/mL in the test with Candida glabrata (isolate MMX 7549 (Susceptible)). Further, the “MIC2 (50% inhibition)” value with Candida albicans (isolate ATCC 90028 (Susceptible)) was ≤0.008 µg/mL; in the test on Candida albicans (isolate ATCC 204276 (MICA-R)), ≤0.008 µg/mL; against Candida albicans (isolate ATCC MYA-2732 (FLU-R, VORI-I)), 0.5 µg/mL; with Candida albicans (isolate MMX 7053 (Susceptible)), ≤0.008 µg/mL; against Candida albicans (isolate MMX 7067 (FLU-R, VORI-R)), >8 µg/mL; in the test with Candida albicans (isolate MMX 7403 (Susceptible)), ≤0.008 µg/mL. In addition, the “MIC2 (50% inhibition)” value against Candida albicans (isolate MMX 7424 (CASP-R, MICA-R)) was ≤0.008 µg/mL; against Candida albicans (isolate MMX 7430 (Susceptible)), ≤0.008 µg/mL; with Candida albicans (isolate MMX 7437 (FLU-I)) it was 0.12 µg/mL; against Candida albicans (isolate MMX 7445 (FLU-R, VORI-R)), >8 µg/mL. In addition, the MIC0 in the test with A. flavus (A. flavus ATCC 22546) worked out at 1 µg/mL; in the test with A. flavus (A. flavus ATCC 204304), 2 µg/mL; with A. flavus (A. flavus MMX 7935), 0.5 µg/mL; in the test with A. niger (setting [5]) it was 0.5 µg/mL; in the test on A. terreus (setting [5]), 0.25 µg/mL; against A. fumigatus (A. fumigatus ATCC 204305) it was 0.5 µg/mL. Also, the MIC0 with A. fumigatus (A. fumigatus ATCC MYA-3626) was determined as 0.5 µg/mL; in the test with A. fumigatus (A. fumigatus MMX 5934), 0.25 µg/mL; in the test with A. fumigatus (A. fumigatus MMX 5938), 0.25 µg/mL; in the test with A. fumigatus (A. fumigatus MMX 5939), 2 µg/mL.
`C[C@H]1[C@H](NC(=O)/C(=N\OC(C)(C)C(=O)O)c2csc(N)n2)C(=O)N1S(=O)(=O)O` [Aztreonam]: the MIC in the test with Burkholderia spp. (read-out: Drug B MIC) is 16 µg/mL (≈ 36.7 µM); in the test with B. cepacia [1] (Burkholderia cepacia, B. cepacia 546, Aztreonam alone (checkerboard with BisEDT), read-out: Drug B MIC) it was 32 µg/mL; in the test on B. cepacia [1] (Burkholderia cepacia, B. cepacia 1793, Aztreonam alone (panel with BisEDT), read-out: Drug B MIC), 128 µg/mL; in the test with P. aeruginosa (P. aeruginosa 6322) it was 32 µg/mL; with P. aeruginosa (P. aeruginosa 6977), 64 µg/mL; with P. aeruginosa (P. aeruginosa 7745), 16 µg/mL. The minimal inhibitory concentration (MIC) in the test with P. aeruginosa (P. aeruginosa 8798) is > 256 µg/mL; in the test with P. aeruginosa (P. aeruginosa 9108) it was 16 µg/mL. Also, the MICB in the test on P. aeruginosa (P. aeruginosa 7745, Aztreonam MIC in combination with BisEDT) was 16 µg/mL; in the test with P. aeruginosa (P. aeruginosa 9108, Aztreonam MIC in combination with BisEDT), 16 µg/mL.
As for `OC(Cn1cncn1)(Cn1cncn1)c1ccc(F)cc1F` [FLU], the MIC2 with A. flavus (A. flavus ATCC 22546), in the test with A. flavus (A. flavus ATCC 204304), in the test with A. flavus (A. flavus MMX 7935), in the test with A. niger, against A. terreus and with A. fumigatus (A. fumigatus ATCC 204305) was >64 µg/mL each time. Moreover, the MIC2 with A. fumigatus (A. fumigatus ATCC MYA-3626), against A. fumigatus (A. fumigatus MMX 5934), against A. fumigatus (A. fumigatus MMX 5938) and against A. fumigatus (A. fumigatus MMX 5939) was >64 µg/mL throughout.
On to Colistin, for which the FICB is recorded as 1 in the test on Burkholderia spp. (B. multivorans 1795, FIC of Colistin in combination with BisEDT, per checkerboard row); 1 in the test with P. aeruginosa (P. aeruginosa 6322); 1 in the test with P. aeruginosa (P. aeruginosa 6977); 1 in the test on P. aeruginosa (P. aeruginosa 7745). Besides, the MICB stood at 0.5 µg/mL with P. aeruginosa (P. aeruginosa 6322, Colistin MIC in combination with BisEDT); 1 µg/mL in the test with P. aeruginosa (P. aeruginosa 6977, Colistin MIC in combination with BisEDT); 0.5 µg/mL in the test on P. aeruginosa (P. aeruginosa 7745, Colistin MIC in combination with BisEDT).
As for `NC[C@H]1O[C@H](O[C@H]2[C@H](O)[C@@H](O[C@H]3O[C@H](CO)[C@@H](O)[C@H](N)[C@H]3O)[C@H](N)C[C@@H]2N)[C@H](N)C[C@@H]1O` [TOB], the MIC against B. cepacia [2] (B. cepacia isolate 0546) was determined as 64 µg/mL (≈ 137 µM); against B. cepacia [2] (B. cepacia isolate 1793) it was 64 µg/mL (≈ 137 µM); against B. cepacia [2] (B. cepacia isolate 1794) it was 64 µg/mL (≈ 137 µM); in the test with B. cenocepacia [3], 32 µg/mL; in the test with B. cepacia [1] (during FIC testing, B. cepacia isolate 0546), 32 µg/mL; against B. cenocepacia [4], 64 µg/mL (≈ 137 µM).
